From patent US20230054976A1, “METHODS FOR INHIBITION OF ALPHA-SYNUCLEIN mRNA USING SMALL MOLECULES” (The Scripps Research Institute, priority 2019, published 2023)
“Also recorded” adds a separate entry of the source.

Legend:
SNCA mRNA [1] = test: RT-qPCR of SNCA mRNA levels in SH-SY5Y cells; type: cell-based, human
[2] = system: construct in which the SNCA 5′ UTR was absent; test: Luciferase reporter assay, construct lacking SNCA 5′ UTR, SH-SY5Y cells; type: cell-based, human; conditions: cellular
Description: pIRES-Luc-EGFP-puro: The firefly luciferase open reading frame (ORF) was amplified with primers 1 and 2 using pmirGLO-dual-luciferase (Promega, E1330) as a template. The PCR product was then fused with linearized pIRES-EGFP-puro (Addgene plasmid #45567) digested with XhoI and SacI, placing the luciferase ORF upstream of the IRES sequence. pCDH-Luc-EGFP-puro: The firefly luciferase open reading frame (ORF) was amplified with primers 15 and 16 using pmirGLO-dual-luciferase (Promega, E1330) as a template. The PCR product was then fused with linearized pCDH-CB-IRES-copGFP-T2A-Puro digested with BamHI and NotI, placing the luciferase ORF upstream of IRES sequence. Luciferase assay. The effect of Synucleozid treatment on translation from various IRE containing transcripts was determined using luciferase reporter assay. […] Luciferase reporter activity in each lysate was monitored using the dual luciferase reporter assay system kit (Promega. Madison, Wis., USA) according to the manufacturer's instructions. Luminescence from firefly luciferase reaction was measured using a microplate luminometer (Wallac 1420, Perkin Elmer) at 485 nm excitation and 535 nm emission wavelengths. Firefly luciferase reaction was then quenched by adding Stop & Glo reagent, and the internal fluorescence from GFP measured at the same setting was used to normalize luciferase expression. […]

APP 5′ UTR = test: Luciferase reporter assay, APP 5′ UTR, SH-SY5Y cells; type: cell-based, human
ferritin 5′ UTR = test: Luciferase reporter assay, ferritin 5′ UTR, SH-SY5Y cells; type: cell-based, human; conditions: 1 μM
SH-SY5Y cells = test: Cell viability (MTS) assay; type: cell-based, human; conditions: 0.25, 0.5 and 1 μM, 48 h
Method: (§1) To assess if Synucleozid has a cytotoxic effect, SH-SY5Y cells were treated with 0.25 μM to 1 μM for 48 h, and cell viability and cytotoxicity were measured using CellTiter 96 Aqueous One Solution Cell Proliferation Assay (MTS) according to the manufacturers' instructions.
as §1, with “0.25, 0.5 and” for “0.25 μM to”, “(MTS) and LDH release assay, respectively,” for “(MTS)”

[3] = system: α-synuclein pre-formed fibrils (PFFs) toxicity in SH-SY5Y cells; test: Cell death assay: cytoprotection against α-synuclein pre-formed fibrils (LDH); type: cell-based, human; conditions: 0.25-1 μM pretreatment 24 h, 50 μg/mL PFFs 48 h
Method: Cell death assay. The cytoprotective effect of Synucleozid was tested against α-synuclein PFFs. Human α-synuclein was expressed^78 and fibrillization induced as previously described^79. SH-SY5Y cells were pretreated with Synucleozid (0.25 μM to 1 μM) for 24 h and challenged with 50 μg/mL of α-synuclein PFFs for an additional 48 h in the presence of Synucleozid. Cell death was measured using LDH (Lactate Dehydrogenase) Cytotoxicity Detection Kit (Takara) according to the manufacturer's instructions and plotted either as optical density value or as percentage changes in comparison to respective controls. Monomeric α-synuclein (50 μg/mL) challenge was used as negative control for PFF cytotoxicity. Additional details are provided in the Supporting Information.
Cell death assay. The cytoprotective effect of Synucleozid was tested against α-synuclein preformed fibrils. […] To induce fibrillization of monomertic α-synuclein, the solution was subjected to shaking at 1000 rpm at 37° C. for 7 days on a thermomixer C (Eppendorf), and formation of fibrillar α-synuclein was monitored and confirmed by thioflavin-T assay (8). […] Cell death was measured using LDH (Lactate Dehydrogenase) Cytotoxicity Detection Kit (Takara) according to the manufacturer's instructions and plotted either as optical density value or as percentage changes in comparison to respective controls. […]

[4] = target: RNA-1 (A bulge mutated to a base pair); test: Competitive binding assay (2-AP), RNA-1
Method: (§2) EC50 was calculated from Eq. (1).

[5] = target: RNA-6 (A bulge mutated to U or G bulge); test: Competitive binding assay (2-AP), RNA-6
Method: as §2

[6] = system: RNA-8 to 11 (mutated closing base pairs); test: Competitive binding assay (2-AP), RNA-8 to 11
Method: as §2

[7] = system: A-bulge-mutated RNA (fully paired RNA); test: Thermal melting experiment, fully paired RNA; type: binding
Description: Thermal melting experiment.

SNCA mRNA [8] = test: ASO-Bind-Map in cells (gapmer ASO, RT-qPCR); type: cell-based, human; conditions: SH-SY5Y cells, gapmer 200 nM
Method: Mapping Synucleozid's binding site in cells with ASO-Bind-Map. SH-SY5Y cells were treated with vehicle (DMSO) or Synucleozid at 60% confluency overnight and were then transfected with a gapmer ASO (200 nM) with Lipofectamine RNAiMAX (Invitrogen) according to the manufacturer's instructions. Mock samples were generated by treating cells with transfection reagent lacking oligonucleotide. RNA extraction, cDNA synthesis and RT-qPCR were performed as described above after 48 h. Primers for SNCA mRNA in this experiment cover sequences upstream and downstream of the IRE; forward primer: [NT]; reverse primer [NT].

N=C(N)c1ccc(Nc2ccc(-c3cc4ccc(C(=N)N)cc4[nH]3)cc2)cc1 [Synucleozid A]
effect on steady-state levels of SNCA mRNA (SNCA mRNA [1]): no effect
inhibitory effect on luciferase construct lacking SNCA 5′ UTR [2]: No inhibitory effect
effect on translation of luciferase fused to APP 5′ UTR (APP 5′ UTR): no effect
inhibition of translation, luciferase fused to ferritin 5′ UTR (ferritin 5′ UTR): ~10%
cell viability (MTS) (SH-SY5Y cells): no toxicity
cell viability (MTS) (SH-SY5Y cells; listed as Synucleozid): no effect
cytoprotection against toxicity of α-synuclein PFFs (LDH release) [3]: mitigated the toxicity induced by PFFs in a concentration dependent manner
cytoprotection against toxicity of α-synuclein PFFs (LDH release) ([3]; listed as Synucleozid): abrogates cytotoxicity
Kd [4]: ~20 µM
reduction of avidity compared to the native IRE [4]: 10 fold
Kd [5]: ~20 µM
reduction of avidity compared to the native IRE [5]: 10 fold
effect of closing base pair mutation on binding affinity [6]: reduced binding affinity
effect on thermal stability of A-bulge-mutated RNA [7]: no significant effect
effect on SNCA mRNA cleavage by ASO(29-39) (SNCA mRNA [8]): no effect; also recorded: Protection is not observed
effect with the control ASO (SNCA mRNA [8]): no effect
EC50 (SNCA mRNA [8]; read-out: EC50 for inhibition of SNCA mRNA cleavage by ASO(1-10)): 1 µM
